One data set deals with Cytochrome P450 3A4 (Homo sapiens, UniProt P08684). As to the kind of experiment: Inhibition of CYP3A4 (unknown origin). The data set is classed as ADME.
A short description of data set [1]: in vitro. The conditions noted are these: rat, liver microsomes. For orientation: Liver microsomes are vesicles of endoplasmic reticulum, rich in cytochrome P450 enzymes.
Data set [2] can be described thus: in vitro. Particulars: PAMPA.
For data set [3], the target named is cAMP and cAMP-inhibited cGMP 3',5'-cyclic phosphodiesterase 10A (Homo sapiens, UniProt Q9Y233).
The target of the next data set is Cytochrome P450 2C19 (Homo sapiens, UniProt P33261). The experiment in a line: Inhibition of CYP2C19 (unknown origin). The data set is classed as ADME.
In the next data set the target is Cytochrome P450 2C9 (Homo sapiens, UniProt P11712). As to the kind of experiment: Inhibition of CYP2C9 (unknown origin). The data set is classed as ADME.
The target in data set [4] is Dual specificity calcium/calmodulin-dependent 3',5'-cyclic nucleotide phosphodiesterase 1C (Homo sapiens, UniProt Q14123). The experiment in a line: Inhibition of PDE1C (147 to 531 residues) (unknown origin) using 3H-cGMP/3H-cAMP as substrate incubated for 15 mins by liquid scintillation counter analysis.
Data set [5] concerns the target 3',5'-cyclic-AMP phosphodiesterase 4D (Homo sapiens, UniProt Q08499). As to the kind of experiment: Inhibition of PDE4D (86 to 413 residues) (unknown origin) using 3H-cAMP as substrate incubated for 15 mins by liquid scintillation counter analysis.
In the next data set the target is Cytochrome P450 2D6 (Homo sapiens, UniProt P10635). The experiment in a line: Inhibition of CYP2D6 (unknown origin). The data set is classed as ADME.
The target of data set [6] is Cone cGMP-specific 3',5'-cyclic phosphodiesterase subunit alpha' (Homo sapiens, UniProt P51160). The experiment in a line: Inhibition of PDE6C (1 to 858 residues) (unknown origin) using 3H-cGMP as substrate incubated for 15 mins by liquid scintillation counter analysis.
In data set [7] the target is Dual 3',5'-cyclic-AMP and -GMP phosphodiesterase 11A (Homo sapiens, UniProt Q9HCR9). The experiment in a line: Inhibition of PDE11A4 (588 to 911 residues) (unknown origin) using 3H-cGMP/3H-cAMP as substrate incubated for 15 mins by liquid scintillation counter analysis.
Another data set addresses T1, Cytochrome P450 1A2 (Homo sapiens, UniProt P05177).
T1 sequence (P05177 whole entry): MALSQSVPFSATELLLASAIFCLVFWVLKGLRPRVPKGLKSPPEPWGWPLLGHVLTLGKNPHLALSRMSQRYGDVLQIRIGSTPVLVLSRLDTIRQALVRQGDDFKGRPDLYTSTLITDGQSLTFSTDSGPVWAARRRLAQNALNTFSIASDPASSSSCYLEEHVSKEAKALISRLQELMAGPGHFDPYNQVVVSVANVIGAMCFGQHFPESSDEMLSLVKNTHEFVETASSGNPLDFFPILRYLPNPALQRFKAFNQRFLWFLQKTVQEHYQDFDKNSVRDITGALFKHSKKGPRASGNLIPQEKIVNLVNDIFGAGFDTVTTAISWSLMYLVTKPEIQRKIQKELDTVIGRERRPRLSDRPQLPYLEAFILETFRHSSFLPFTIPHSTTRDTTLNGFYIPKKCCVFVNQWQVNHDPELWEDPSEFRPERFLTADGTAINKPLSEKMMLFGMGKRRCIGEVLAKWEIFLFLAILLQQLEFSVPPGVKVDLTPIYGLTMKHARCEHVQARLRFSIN
The experiment in a line: Inhibition of CYP1A2 (unknown origin). Type of data set: ADME.

The target in data set [8] is cGMP-specific 3',5'-cyclic phosphodiesterase (Homo sapiens, UniProt O76074). As to the kind of experiment: Inhibition of PDE5A1 (535 to 860 residues) (unknown origin) extracted from Escherichia coli BL21 using 3H-cGMP as substrate incubated for 15 mins by liquid scintillation counter analysis.
The target of data set [9] is High affinity 3',5'-cyclic-AMP phosphodiesterase 7A (Homo sapiens, UniProt Q13946). The experiment in a line: Inhibition of PDE7A1 (130 to 482 residues) (unknown origin) using 3H-cAMP as substrate incubated for 15 mins by liquid scintillation counter analysis.
The target in data set [10] is cGMP-dependent 3',5'-cyclic phosphodiesterase (Homo sapiens, UniProt O00408). The experiment in a line: Inhibition of PDE2A (580 to 919 residues) (unknown origin) using 3H-cGMP as substrate incubated for 15 mins by liquid scintillation counter analysis.
In data set [11] the target is cGMP-inhibited 3',5'-cyclic phosphodiesterase 3A (Homo sapiens, UniProt Q14432). The experiment in a line: Inhibition of PDE3A (679 to 1087 residues) (unknown origin) using 3H-cAMP as substrate incubated for 15 mins by liquid scintillation counter analysis.
The target of data set [12] is High affinity cGMP-specific 3',5'-cyclic phosphodiesterase 9A (Homo sapiens, UniProt O76083). As to the kind of experiment: Inhibition of recombinant PDE9A2 (181 to 506 residues) (unknown origin) extracted from Escherichia coli BL21 using 3H-cGMP as substrate incubated for 15 mins by liquid scintillation counter analysis.
Sequence of High affinity cGMP-specific 3',5'-cyclic phosphodiesterase 9A (O76083 whole entry, the tested form may be a part): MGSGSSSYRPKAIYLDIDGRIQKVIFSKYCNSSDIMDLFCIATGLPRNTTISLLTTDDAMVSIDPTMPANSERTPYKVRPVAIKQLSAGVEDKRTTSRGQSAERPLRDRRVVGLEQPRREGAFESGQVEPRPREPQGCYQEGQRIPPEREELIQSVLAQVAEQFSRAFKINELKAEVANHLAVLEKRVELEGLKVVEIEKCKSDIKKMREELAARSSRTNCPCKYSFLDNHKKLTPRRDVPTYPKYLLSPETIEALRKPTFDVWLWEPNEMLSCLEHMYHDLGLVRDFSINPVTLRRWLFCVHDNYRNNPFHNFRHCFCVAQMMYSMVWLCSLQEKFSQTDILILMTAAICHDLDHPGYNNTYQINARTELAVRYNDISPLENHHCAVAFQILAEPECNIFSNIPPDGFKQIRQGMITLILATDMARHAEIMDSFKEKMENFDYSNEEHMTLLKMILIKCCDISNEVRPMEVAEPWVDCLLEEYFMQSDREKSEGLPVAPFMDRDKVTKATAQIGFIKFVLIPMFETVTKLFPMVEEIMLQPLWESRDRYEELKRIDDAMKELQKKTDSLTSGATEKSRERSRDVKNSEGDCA

Sequence of Cytochrome P450 3A4 (P08684 whole entry): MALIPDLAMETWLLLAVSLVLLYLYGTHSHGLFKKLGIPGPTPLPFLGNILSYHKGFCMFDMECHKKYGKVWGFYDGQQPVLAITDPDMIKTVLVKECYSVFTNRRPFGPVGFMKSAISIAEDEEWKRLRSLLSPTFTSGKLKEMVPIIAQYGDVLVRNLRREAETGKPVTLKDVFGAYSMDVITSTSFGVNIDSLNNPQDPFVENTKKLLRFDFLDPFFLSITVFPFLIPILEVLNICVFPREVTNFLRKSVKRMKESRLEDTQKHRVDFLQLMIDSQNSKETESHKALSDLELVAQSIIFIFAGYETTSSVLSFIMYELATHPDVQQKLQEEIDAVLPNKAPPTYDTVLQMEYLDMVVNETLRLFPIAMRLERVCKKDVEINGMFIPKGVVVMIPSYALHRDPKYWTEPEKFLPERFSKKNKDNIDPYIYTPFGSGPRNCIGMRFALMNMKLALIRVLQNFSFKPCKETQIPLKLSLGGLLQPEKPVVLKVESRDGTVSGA
Sequence of Cone cGMP-specific 3',5'-cyclic phosphodiesterase subunit alpha' (P51160 whole entry, the tested form may be a part): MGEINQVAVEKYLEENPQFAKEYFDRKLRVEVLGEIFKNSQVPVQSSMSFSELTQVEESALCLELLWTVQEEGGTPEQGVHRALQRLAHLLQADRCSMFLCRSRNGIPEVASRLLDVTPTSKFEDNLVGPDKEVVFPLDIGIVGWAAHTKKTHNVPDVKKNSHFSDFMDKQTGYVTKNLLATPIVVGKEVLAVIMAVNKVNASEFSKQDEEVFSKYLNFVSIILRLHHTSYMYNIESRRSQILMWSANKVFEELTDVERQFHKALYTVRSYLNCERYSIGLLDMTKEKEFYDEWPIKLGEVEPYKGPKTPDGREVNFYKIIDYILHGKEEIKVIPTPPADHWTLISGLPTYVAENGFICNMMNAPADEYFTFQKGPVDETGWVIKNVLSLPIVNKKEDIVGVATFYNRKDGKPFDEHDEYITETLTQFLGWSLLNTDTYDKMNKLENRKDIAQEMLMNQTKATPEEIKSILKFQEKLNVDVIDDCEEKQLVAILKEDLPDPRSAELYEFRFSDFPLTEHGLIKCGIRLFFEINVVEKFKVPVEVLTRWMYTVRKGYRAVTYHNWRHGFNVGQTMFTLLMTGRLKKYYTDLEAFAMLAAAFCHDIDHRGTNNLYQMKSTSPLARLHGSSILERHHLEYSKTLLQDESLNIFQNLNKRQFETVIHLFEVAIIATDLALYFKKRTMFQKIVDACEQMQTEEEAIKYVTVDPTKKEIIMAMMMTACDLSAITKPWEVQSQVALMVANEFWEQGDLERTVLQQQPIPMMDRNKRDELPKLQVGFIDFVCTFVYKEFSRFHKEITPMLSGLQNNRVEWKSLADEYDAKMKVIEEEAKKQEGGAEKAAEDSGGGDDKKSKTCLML
Sequence of Dual 3',5'-cyclic-AMP and -GMP phosphodiesterase 11A (Q9HCR9 whole entry, the tested form may be a part): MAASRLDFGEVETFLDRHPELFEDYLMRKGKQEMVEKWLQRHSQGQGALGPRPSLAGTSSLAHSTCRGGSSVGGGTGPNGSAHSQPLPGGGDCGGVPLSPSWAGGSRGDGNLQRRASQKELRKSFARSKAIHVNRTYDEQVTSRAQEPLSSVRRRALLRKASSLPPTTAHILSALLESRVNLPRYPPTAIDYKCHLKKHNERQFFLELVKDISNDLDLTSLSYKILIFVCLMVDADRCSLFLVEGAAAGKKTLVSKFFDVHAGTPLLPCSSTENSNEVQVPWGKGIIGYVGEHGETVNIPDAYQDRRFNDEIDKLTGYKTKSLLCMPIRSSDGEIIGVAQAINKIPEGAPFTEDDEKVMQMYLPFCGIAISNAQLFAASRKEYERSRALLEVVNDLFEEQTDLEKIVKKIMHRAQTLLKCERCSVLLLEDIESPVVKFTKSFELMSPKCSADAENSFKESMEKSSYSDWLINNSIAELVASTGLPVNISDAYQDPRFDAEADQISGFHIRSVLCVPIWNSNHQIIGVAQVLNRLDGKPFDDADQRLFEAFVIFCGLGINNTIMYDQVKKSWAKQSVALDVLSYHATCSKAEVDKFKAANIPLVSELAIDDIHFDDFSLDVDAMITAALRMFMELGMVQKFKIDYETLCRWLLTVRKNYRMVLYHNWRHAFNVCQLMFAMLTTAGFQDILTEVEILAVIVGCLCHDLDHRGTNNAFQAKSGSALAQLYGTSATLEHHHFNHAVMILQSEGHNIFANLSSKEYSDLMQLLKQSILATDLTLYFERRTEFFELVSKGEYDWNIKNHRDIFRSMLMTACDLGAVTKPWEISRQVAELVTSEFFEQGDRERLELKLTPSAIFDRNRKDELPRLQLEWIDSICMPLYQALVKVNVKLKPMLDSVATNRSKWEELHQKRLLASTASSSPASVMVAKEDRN
Sequence of cGMP-inhibited 3',5'-cyclic phosphodiesterase 3A (Q14432 whole entry, the tested form may be a part): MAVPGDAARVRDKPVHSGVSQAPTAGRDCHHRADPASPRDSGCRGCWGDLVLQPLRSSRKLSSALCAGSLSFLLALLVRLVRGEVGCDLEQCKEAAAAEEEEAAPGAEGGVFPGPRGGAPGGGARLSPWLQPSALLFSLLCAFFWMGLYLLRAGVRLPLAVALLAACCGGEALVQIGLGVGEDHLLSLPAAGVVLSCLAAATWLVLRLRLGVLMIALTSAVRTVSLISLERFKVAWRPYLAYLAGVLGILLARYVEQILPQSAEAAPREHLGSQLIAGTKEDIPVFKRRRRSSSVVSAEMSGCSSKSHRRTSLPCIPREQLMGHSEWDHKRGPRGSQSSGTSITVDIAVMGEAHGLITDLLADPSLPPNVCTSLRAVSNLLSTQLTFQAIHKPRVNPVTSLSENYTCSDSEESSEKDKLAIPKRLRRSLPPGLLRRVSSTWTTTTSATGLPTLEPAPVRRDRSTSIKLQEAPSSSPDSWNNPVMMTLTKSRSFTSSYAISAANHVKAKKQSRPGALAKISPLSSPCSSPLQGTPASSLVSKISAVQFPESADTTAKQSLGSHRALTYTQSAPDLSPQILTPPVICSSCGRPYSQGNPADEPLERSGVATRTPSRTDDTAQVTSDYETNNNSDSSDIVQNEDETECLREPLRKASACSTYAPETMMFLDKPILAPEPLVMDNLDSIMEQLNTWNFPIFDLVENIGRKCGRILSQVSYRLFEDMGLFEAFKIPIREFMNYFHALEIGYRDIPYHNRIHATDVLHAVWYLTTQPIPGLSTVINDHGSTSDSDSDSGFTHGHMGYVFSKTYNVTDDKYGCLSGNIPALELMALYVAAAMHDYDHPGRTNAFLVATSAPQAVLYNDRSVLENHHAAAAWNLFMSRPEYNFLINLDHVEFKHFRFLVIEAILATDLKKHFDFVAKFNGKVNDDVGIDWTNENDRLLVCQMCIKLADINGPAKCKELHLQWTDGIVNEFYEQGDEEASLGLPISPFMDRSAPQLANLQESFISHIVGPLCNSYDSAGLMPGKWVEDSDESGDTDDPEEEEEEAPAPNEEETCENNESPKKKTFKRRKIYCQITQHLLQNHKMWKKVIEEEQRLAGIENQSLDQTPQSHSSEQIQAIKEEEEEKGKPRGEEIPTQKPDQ
Sequence of High affinity 3',5'-cyclic-AMP phosphodiesterase 7A (Q13946 whole entry, the tested form may be a part): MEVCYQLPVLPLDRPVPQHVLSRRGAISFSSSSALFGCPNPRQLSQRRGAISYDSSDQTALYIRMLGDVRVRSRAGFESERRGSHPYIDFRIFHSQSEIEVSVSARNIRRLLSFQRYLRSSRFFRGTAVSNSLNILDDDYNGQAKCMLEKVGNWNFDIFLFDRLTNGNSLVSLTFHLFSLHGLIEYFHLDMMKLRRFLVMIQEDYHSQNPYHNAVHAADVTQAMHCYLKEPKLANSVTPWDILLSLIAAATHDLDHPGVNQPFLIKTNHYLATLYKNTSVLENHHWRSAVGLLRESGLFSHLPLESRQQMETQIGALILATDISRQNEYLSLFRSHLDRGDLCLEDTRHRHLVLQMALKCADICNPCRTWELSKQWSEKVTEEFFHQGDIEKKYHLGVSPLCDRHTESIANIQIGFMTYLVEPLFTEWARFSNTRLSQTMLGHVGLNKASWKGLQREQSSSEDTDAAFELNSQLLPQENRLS
Sequence of Cytochrome P450 2D6 (P10635 whole entry, the tested form may be a part): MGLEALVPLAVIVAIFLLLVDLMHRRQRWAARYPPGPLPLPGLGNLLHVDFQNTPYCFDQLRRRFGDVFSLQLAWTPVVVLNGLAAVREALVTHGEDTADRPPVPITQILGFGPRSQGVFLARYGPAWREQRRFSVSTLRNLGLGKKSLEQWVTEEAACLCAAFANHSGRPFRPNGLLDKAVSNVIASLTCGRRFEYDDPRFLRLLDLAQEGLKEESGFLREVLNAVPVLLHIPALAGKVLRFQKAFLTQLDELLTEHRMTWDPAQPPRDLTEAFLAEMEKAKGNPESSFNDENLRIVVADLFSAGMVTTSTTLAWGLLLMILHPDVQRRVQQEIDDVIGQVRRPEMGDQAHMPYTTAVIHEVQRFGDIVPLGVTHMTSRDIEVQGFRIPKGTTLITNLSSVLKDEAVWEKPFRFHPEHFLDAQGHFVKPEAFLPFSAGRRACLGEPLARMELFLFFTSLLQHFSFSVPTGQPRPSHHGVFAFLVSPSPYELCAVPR

`Cc1ccc2c(c1)nc(/C=C/c1cccc3cccnc13)n2-c1cccc(OCCCN2CCN(C)CC2)c1` gave an IC50 at Cytochrome P450 3A4 of 0.21 µM. This compound also came in with a half-life in “in vitro [1]” of 25 min. In “in vitro [2]”, this compound showed a Papp of 1.47 ×10⁻⁶ cm/s.

The compound `Cc1ccc2c(c1)nc(C1CN(c3nc(Cl)nc4ccccc34)C1)n2-c1ccccc1` showed a half-life in the data set “in vitro [1]” of 0.72 min. This compound also registered a 50% inhibitory concentration (IC50) in [3] of 0.0312 µM.

`CCOC(=O)c1c(C2CN(c3cc(C(=O)NCCN(CC)CC)c4ccccc4n3)C2)nc2ccccn12`: the half-maximal inhibitory concentration (IC50) was > 30 µM against Cytochrome P450 2C19; > 30 µM against Cytochrome P450 2C9; > 10 µM in data set [4]; 1.28 µM in data set [5]; 9.7 µM against Cytochrome P450 2D6; > 10 µM in [6]. The IC50 at Cytochrome P450 3A4 was > 30 µM; in [7], > 10 µM; against Cytochrome P450 1A2, > 30 µM; in data set [8], > 10 µM; in [9], > 10 µM; in data set [10], > 10 µM. The IC50 in data set [11] and in data set [12] was > 10 µM throughout.

As a reminder, the IC50 is the concentration needed to halve the response being measured. A word on the half-life: it is the time in which the quantity being followed falls by half. The Papp is the rate of passage across a membrane or cell layer, normalised by area and donor concentration. The low end stands for slow passage, the high end for fast passage.
